According to patent US12251234B2, “Systems and methods for transdermally detecting tissue ischemia and evaluating organ function using serum luminescence” (University of Macau, priority 2018, dated 2025):

Tests used:
liver = assay: Biochemical assay of rat serum in DEN-induced hepatocellular carcinoma rat model; assay type: in vivo
Protocol: Hepatocellular carcinoma (HCC) is a well-known malignant liver tumor often caused by liver cirrhosis. N-Nitrosodiethylamine ([…], DEN), which is a toxic substance with strong liver toxicity, was used to induce HCC in a rat tumor model. The dose of 300 g rats was 0.75 ml DEN/5 liters in drinking water; the dose of 400 g rats was 1.0 ml DEN/5 liters in drinking water. When the rats weighed over 200 g (about 6-7 weeks), they started to be fed. Group 1 was fed a half dose DEN, while Group 3 was fed a full dose. After 6 weeks of consecutive feeding (at the 12th week of experiment), feeding DEN to Group 1 discontinued. Group 3 continued scheduled DEN feedings for three additional weeks. Liver tumors were formed and confirmed by high-frequency ultrasonic imaging in vivo.
After rats were sacrificed, blood was collected and centrifuged, and the serum from centrifuge was tested, which included albumin, total bilirubin, glutamic pyruvic transaminase and glutamic oxaloacetic transaminase. If the liver is abnormal, the albumin content in the blood will decrease. Total bilirubin contains direct bilirubin and indirect bilirubin, which are the product of liver metabolism. If liver function is abnormal, total bilirubin in blood rises. Glutamic-pyruvate transaminase (GPT) and glutamic oxaloacetic transaminase (GOT) are also commonly used markers to evaluate liver function, although these two enzymes are not only found in the liver. Nevertheless, they are more abundant in liver cells than in other organs or tissue. When the liver is damaged, inflamed liver cells release GPT and GOT into the blood in large quantities. Therefore, the amount of these factors in the blood may be useful as a basis for judging the health of liver function. In addition, the liver was made into a paraffin block and processed with H&E staining. The staining results were observed and imaged by Nikon ECLIPSE NiE orthotropic fluorescence microscope.

[1] = ICG fluorescence dosimetry in rat blood vessels (retention/decay of ICG in circulation); assay type: in vivo
Protocol: Embodiments of the present disclosure enable systems and methods for detecting organ dysfunction and were validated using two optical systems to perform ICG fluorescence dosimetry on rats developing hepatocellular carcinoma (HCC).
One optical system used was a multiphoton microscope, which can non-invasively identify the location of vessels in vivo from sectioning two-photon fluorescence imaging. Time-course dynamics of concentration decay were also analyzed by the signal intensity within vessels. The other tested optical system was a point excitation and time course measurement using a 785 nm laser.
As shown in the diagram of FIG. 11, the multiphoton microscopy system used the scanning inverted microscope system of Leica DMI 3000M. The laser source was the femtosecond Cr:forsterite laser with a central wavelength of about 1250 nm. The output power was about 570 mW, and the beam diameter was about 2.5 mm. The excited light passed through a set of Galilean telescopes consisting of flat convex lenses and flat concave lenses to shrink the beam size down below 2 mm. Then, the excited beam passed through the periscope to rotate the polarization. After passing through the Iris Pair for system alignment, the beam entered a scanning module composed of a 16 kHz resonant mirror and a galvanometer mirror. The scanning angle of the resonant scanner was 5 degrees. The excited light was expanded by a set of relaying lenses so that it just filled the back aperture of the objective lens. The excitation beam was reflected by a 900-nm edged dichroic beam splitter (DM 900 SP) and focused by an objective lens (63×/NA 1.15. Zeiss) to excite biological tissues.
The generated two-photon fluorescence signals of ICG were epi-collected by the same objective lens and penetrated the DM900 SP. The signals were directed to a 484 nm edged dichroic beam splitter (DM484LP). The third harmonic generation signal (417 nm) was separated from the fluorescent signals longer than 484 nm. The third harmonic generation (THG) and two photon fluorescent (TPF) signals were filtered by a 414 nm/18 nm band pass filter and a 650 nm long pass filter, respectively. These signals were subsequently detected by photomultiplier tubes and digitized by a field programmable logic gate array (FPGA).
After the injection of ICG into the tail, there was a relatively low scattering and absorption of laser in the 1230 nm band, so the wavelength band could penetrate the skin deeper, and the background noise was low. Because blood cells can give strong THG signals, it was possible to locate the blood vessel by using THG imaging, as shown in FIG. 15A. Before ICG injection, there was no TPF signal (see FIG. 15B). After the injection, the TPF signals appeared immediately in the region of vessel (see FIG. 15C).
By selecting the region of interest (ROI) within vessel, we quantified the TPF intensity within the vessels. The fluorescence dosimetry curve of ICG can thus be measured (as shown in FIG. 16), which is ideal to evaluate the liver function. The dosimetry curve can be fitted with a single exponential decay function (red curve in FIG. 16), which represents a 4.4 minutes decay time constant after injection of ICG. The decay constant can be used as an index to evaluate the liver function. For Group 1 and Group 3 four serum parameters were measured to obtain liver function information: serum albumin, total bilirubin, GPT, and GOT. […]

[2] = healthy person; cited from earlier work
[3] = Group 1: half dose DEN in drinking water, 6 weeks
[4] = Group 3: full dose DEN in drinking water, 9 weeks
[5] = Group 3 rats (full dose DEN, HCC), FIG. 18

decay time (exponential decay model fit) [1, 5] [min] | initial amount still retained in circulation at 15 minutes post injection [1, 5] [%] | decay time constant after injection of ICG (single exponential decay fit) ([1]; healthy control Group rats, FIG. 16) [min] | amount of ICG metabolized within 15 minutes ([1]; healthy control Group rats, TPF dosimetry curve, FIG. 16) [%] | SMILES | Albumin (liver; [3]) [g/dL] | GOT (liver; [3]) [U/L] | GPT (liver; [3]) [U/L] | Total bilirubin (liver; [3]) [mg/dL] | Albumin (liver; [4]) [g/dL] | GOT (liver; [4]) [U/L] | GPT (liver; [4]) [U/L] | Total bilirubin (liver; [4]) [mg/dL] | leakage of ICG out of blood vessels (TPF imaging after tail injection) ([1]; rat, sectioning TPF/THG images, FIG. 15) | ICG-15 (retention percentage at 15 minutes post ICG injection) [2]
 |  |  |  | CCN(CC)N=O [DEN, N-Nitrosodiethylamine] | 3.9 | 89 | 60.3 | 0.27 | 3.75 | 265 | 129 | 0.6 |  | 
13 | 45 | 4.4 | 90 | CC1(C)C(/C=C/C=C/C=C/C=C2\N(CCCCS(=O)(=O)O)c3ccc4ccccc4c3C2(C)C)=[N+](CCCCS(=O)(=O)[O-])c2ccc3ccccc3c21 [ICG, indocyanine green] |  |  |  |  |  |  |  |  | did not leak out into extravascular spaces | below 10 % of the initial concentration
